Experimental data from paper PMC5735979, “Total Coumarins from Hydrangea paniculata Show Renal Protective Effects in Lipopolysaccharide-Induced Acute Kidney Injury via Anti-inflammatory and Antioxidant Activities” (Frontiers in Pharmacology, 2017).

Assays:
Type in all cases: in vivo, C57BL/6 mice
[1] = test system: caspase 3, 7, 8, 9 in kidney tissue; experiment: Tubular cell apoptosis and caspases in LPS-challenged kidneys (IHC, RT-qPCR, western blot); conditions: MMF 10 mg/kg; magnitude less than HP at 40 mg/kg
Procedure: LPS from Escherichia coli 0111:B4 was purchased from Sigma-Aldrich (St. Louis, MO, USA), and freshly dissolved in sterile 0.9% NaCl solution buffer before i.p. injection. For the standard treatment experiment, low dosage of LPS was used for induction of kidney injury. Inbred, 16–18 g, 4–6-week-old, male C57BL/6 mice were purchased from the SPF Biotechnology Co. Ltd. (Beijing, China). The sham group received 10 mL/kg saline by oral gavagedaily during the experiment, and at day 3 received a saline sham injection (i.p.). The LPS model group was exposed to the same procedure as the sham group, except receiving an LPS (20 mg/kg) injection (i.p.) at day 3, instead of saline. […]
For cleaved caspase 3 immunohistochemical analysis, the endogenous peroxidase activity in each section was quenched with 3% H2O2. […] Labelling was detected with a biotin-conjugated goat anti-rabbit IgG and avidin-biotin peroxidase complex. Cleaved caspase-3-positive cells in cortexes were scored in 30 random × 400 high-power fields (HPFs) with a ZEISS Observer A1 microscope (ZEISS, Germany).
The mRNA levels of selected important chemokines and cytokines in the kidneys, such as TNF-α, IL-1β, IL-6, intercellular adhesion molecule 1 (ICAM-1), vascular cell adhesion molecule 1 (VCAM-1), and MCP-1, as well as caspase family members, such as caspase 3, caspase 7, caspase 8, and caspase 9, were quantified by RT-qPCR. […]

[2] = test system: peripheral blood leukocytes; experiment: Peripheral blood leukocyte counts after LPS injection; conditions: LPS i.p. injection
Procedure: To understand the effect of HP on peripheral leukocytes in LPS-induced septic mice, peripheral […] was collected in heparin pretreated tubes by retro-orbital bleeding at 4, 8, 12, 24, and 48 h post-LPS injection, and the number of monocytes, lymphocytes, and neutrophils in the […] at different time points was examined by an Automatic Hematology Analyzer (Celltac E MEK-7222, Nihon Kohden, Japan). The detailed experimental procedure is shown in Figure 1C, which is similar to that used to analyze the effect of HP treatment on LPS-induced AKI.

[3] = test system: macrophages and neutrophils in kidneys; experiment: Flow cytometric determination of kidney leukocytes; conditions: LPS-induced AKI mice, flow cytometry, N = 8
Procedure: To determine the effect of HP on leukocyte populations in septic kidneys, kidney single-cell suspensions were prepared and analyzed. Briefly, the single-cell suspensions were first incubated with anti-mouse CD45-APC-Cy7 antibody (eBioscience, USA) for 30 min on ice. After washing, the cells were stained for 15 min on ice with fluorochrome-labeled monoclonal antibodies against anti-mouse Ly6G-PE, CD11c-FITC, or F4/80-APC (eBioscience, USA) for detection of neutrophils or macrophages. Six-color fluorescence flow cytometric analyses were performed (FACS Verse, BD, USA), and the data were analyzed with the FlowJo program (Tree Star, Inc., Ashland, CA, USA).

[4] = Pharmacokinetics study after single oral dose of HP; conditions: for Blood drug concentration: 12 h after single oral dose of 50 mg/kg HP; for Blood drug concentration / concentration at 0.08 h / concentration at 0.25 h / concentration at 0.5 h / concentration at 1 h / concentration at 1.5 h / concentration at 2 h / concentration at 3 h / concentration at 4 h / concentration at 8 h / half-life / AUC(0-inf) / AUC(0-t) / Cmax / Tmax / MRT last / MRT inf: mice, n = 5; for Blood drug concentration / concentration at 0.08 h / concentration at 0.25 h / concentration at 0.5 h / concentration at 1 h / concentration at 1.5 h / concentration at 2 h / concentration at 3 h / concentration at 4 h / concentration at 8 h: mean ± SD; for concentration at 0.08 h / concentration at 0.25 h / concentration at 0.5 h / concentration at 1 h / concentration at 1.5 h / concentration at 2 h / concentration at 3 h / concentration at 4 h / concentration at 8 h / half-life / AUC(0-inf) / AUC(0-t) / Cmax / Tmax / MRT last / MRT inf: male, C57BL/6, mouse, plasma; for concentration at 0.08 h: 0.08 h after single oral dose of 50 mg/kg HP; for concentration at 0.08 h / concentration at 0.25 h / concentration at 0.5 h / concentration at 1 h / concentration at 1.5 h / concentration at 2 h / concentration at 3 h / concentration at 4 h / concentration at 8 h: read-out: Blood drug concentration; for concentration at 0.25 h: 0.25 h after single oral dose of 50 mg/kg HP; for concentration at 0.5 h: 0.5 h after single oral dose of 50 mg/kg HP; for concentration at 1 h: 1 h after single oral dose of 50 mg/kg HP; for concentration at 1.5 h: 1.5 h after single oral dose of 50 mg/kg HP; for concentration at 2 h: 2 h after single oral dose of 50 mg/kg HP; for concentration at 3 h: 3 h after single oral dose of 50 mg/kg HP; for concentration at 4 h: 4 h after single oral dose of 50 mg/kg HP; for concentration at 8 h: 8 h after single oral dose of 50 mg/kg HP; for half-life: elimination half-life; for half-life / AUC(0-inf) / AUC(0-t) / Cmax / Tmax / MRT last / MRT inf: single oral dose of 50 mg/kg HP; for MRT last: read-out: MRT(0−t); for MRT inf: read-out: MRT(0−∞)
Procedure: All of the animals were fasted for 12 h before receiving HP and were then allowed to eat for 4 h after administration. The dosing solutions used for the animal studies were prepared by dissolving the required amounts of HP in distilled water. […] The plasma was separated and stored at 2–8°C until analysis. […] Louis, MO, USA) and then mixed with 180 μL of acetonitrile (Merck, Darmstadt, Germany) to precipitate protein. After centrifugation, aliquots (10 μL each) of the supernatant were used for analysis. […] The mobile phase consisted of solvent A [0.1% formic acid (Dikma Technologies, Inc., CA, USA) in water] and solvent B [0.1% formic acid in methanol (Merck)]. The analytes were eluted at a flow rate of 0.2 mL/min, with the following gradient elution: from 0 to 0.6 min, 20% B; linear increase to 95% B in 0.2 min; 95% B for 4 min, decrease to 20% B in 0.2 min; and stabilization at initial conditions for 6 min. The mass spectrometer was set for multiple reaction monitoring and was operated in a positive-ion mode with an electrospray ionization source. Nitrogen was used as the curtain gas and the collision gas. The ion-spray voltage was set at 5,500 V, and the gas temperature at 500°C.

Row | Structure (SMILES) | Blood drug concentration [4] | concentration at 0.08 h [4] [nM] | concentration at 0.25 h [4] [nM] | concentration at 0.5 h [4] [nM] | concentration at 1 h [4] [nM] | concentration at 1.5 h [4] [nM] | concentration at 2 h [4] [nM] | concentration at 3 h [4] [nM] | concentration at 4 h [4] [nM] | concentration at 8 h [4] [nM] | half-life [4] [h] | AUC(0-inf) [4] [µM·h] | AUC(0-t) [4] [µM·h] | Cmax [4] [nM] | Tmax [4] [h] | MRT last [4] [h] | MRT inf [4] [h] | further results
1 | COc1c(C)c2c(c(O)c1C/C=C(\C)CCC(=O)OCCN1CCOCC1)C(=O)OC2 [MMF, Mycophenolate mofetil] |  |  |  |  |  |  |  |  |  |  |  |  |  |  |  |  |  | tubular apoptosis in LPS-induced AKI [1]: ameliorated tubular apoptosis; peripheral blood monocytes at 48 h after LPS ([2]; HP 40 mg/kg, MMF 10 mg/kg, N = 8): significantly reduced peripheral blood monocytes; peripheral blood counts within the first 24 h after LPS ([2]; data not shown): did not change the peripheral blood counts; infiltration of CD45+ F4/80+ CD11c+ macrophages and CD45+Ly6G+ neutrophils into kidneys [3]: produced similar inhibitory results
2 | O=c1ccc2ccc(O)cc2o1 [Umbelliferone, umbelliferone] | Not detectable | 4210 ± 2210 | 9120 ± 3280 | 7350 ± 2040 | 3360 ± 760 | 2060 ± 790 | 1450 ± 790 | 1100 ± 1300 | 590 ± 170 | 140 ± 140 | 1.69 | 12.2 | 11.8 | 9120 | 0.25 | 1.58 | 1.82 | 
3 | O=c1ccc2cc(O)c(O)cc2o1 [Esculetin, esculetin] | Not detectable | 980 ± 800 | 2980 ± 1240 | 3000 ± 1050 | 2240 ± 400 | 2250 ± 1590 | 650 ± 220 | 680 ± 880 | 300 ± 160 | 120 ± 10 | 2.3 | 6.66 | 6.27 | 3000 | 0.5 | 1.82 | 2.38 | 
4 | O=c1ccc2ccc(O[C@@H]3O[C@H](CO[C@@H]4OC[C@](O)(CO)[C@H]4O)[C@@H](O)[C@H](O)[C@H]3O)cc2o1 [apiosylskimmin] |  |  |  |  |  |  |  |  |  |  |  |  |  |  |  |  |  | concentration of plasma apiosylskimmin ([4]; mouse, in vivo, po, 50 mg/kg): too low to be determined
